Test results reported in ChEMBL document CHEMBL3352235, “Design, synthesis and biological evaluation of 17-arylmethylamine-17-demethoxygeldanamycin derivatives as potent Hsp90 inhibitors” (Eur J Med Chem, 2014).

Legend:
[1] = system: LNCaP; assay: cells; details: Homo sapiens, 72 h
Description: Cytotoxicity against human LNCAP cells after 72 hrs by MTT assay

[2] = system: MDA-MB-231; assay: cells; details: Homo sapiens, MDA-MB-231, 72 h
Description: Cytotoxicity against human MDA-MB-231 cells after 72 hrs by MTT assay

[3] = system: Mus musculus; assay: Hepatotoxicity in Kunming mouse assessed as serum AST level at 10 mg/kg, iv (reference value: 197.2 +/- 11.2 U/L); type: toxicity, organism-based; set-up: dose 10 mg/kg, route intravenous; details: in vivo
[4] = system: Mus musculus; assay: Hepatotoxicity in Kunming mouse assessed as serum ALT level at 10 mg/kg, iv (reference value: 60.7 +/- 6.9 U/L); type: toxicity, organism-based; set-up: dose 10 mg/kg, route intravenous; details: in vivo
[5] = molecular target: Heat shock protein HSP 90-alpha (Homo sapiens, UniProt P07900); assay: Displacement of GA-FITC from human recombinant HSP90alpha ATP-binding site by fluorescence polarization assay
[6] = system: MDA-MB-231; assay: Antitumor activity against human MDA-MB-231 cells xenografted in BALB/c mouse assessed as reduction in tumor weight at 10 mg/kg, iv dosed every 3 days for 15 days; type: functional; details: read-out: GI
[7] = system: MDA-MB-231; assay: Antitumor activity against human MDA-MB-231 cells xenografted in BALB/c mouse assessed as tumor volume at 10 mg/kg, iv dosed every 3 days for 15 days relative to untreated control; type: functional

Row | Structure (SMILES) | IC50 [1] [nM] | IC50 [2] [nM] | Activity [3] [U/L] | Activity [4] [U/L] | IC50 [5] [nM] | inhibition in vivo at 10 mg/kg [6] [%] | T/C [7] [%]
1 | CO[C@H]1/C=C\C=C(/C)C(=O)NC2=CC(=O)C(NCc3ccccc3Cl)=C(C[C@@H](C)C[C@H](OC)[C@H](O)[C@@H](C)/C=C(\C)[C@@H]1OC(N)=O)C2=O | 410 | 650 |  |  |  |  | 
2 | CO[C@H]1/C=C\C=C(/C)C(=O)NC2=CC(=O)C(NCc3cccc(Cl)c3)=C(C[C@@H](C)C[C@H](OC)[C@H](O)[C@@H](C)/C=C(\C)[C@@H]1OC(N)=O)C2=O | 8500 | 380 |  |  |  |  | 
3 | CO[C@H]1/C=C\C=C(/C)C(=O)NC2=CC(=O)C(NCc3ccc(Cl)cc3)=C(C[C@@H](C)C[C@H](OC)[C@H](O)[C@@H](C)/C=C(\C)[C@@H]1OC(N)=O)C2=O | 770 | 460 |  |  |  |  | 
4 | CO[C@H]1/C=C\C=C(/C)C(=O)NC2=CC(=O)C(NCc3ccc(F)cc3)=C(C[C@@H](C)C[C@H](OC)[C@H](O)[C@@H](C)/C=C(\C)[C@@H]1OC(N)=O)C2=O | 2280 | 630 |  |  |  |  | 
5 | CO[C@H]1/C=C\C=C(/C)C(=O)NC2=CC(=O)C(NCc3ccc(Br)cc3)=C(C[C@@H](C)C[C@H](OC)[C@H](O)[C@@H](C)/C=C(\C)[C@@H]1OC(N)=O)C2=O | > 10000 | 240 |  |  |  |  | 
6 | CO[C@H]1/C=C\C=C(/C)C(=O)NC2=CC(=O)C(NCc3ccc(I)cc3)=C(C[C@@H](C)C[C@H](OC)[C@H](O)[C@@H](C)/C=C(\C)[C@@H]1OC(N)=O)C2=O | 1360 | 360 |  |  |  |  | 
7 | CO[C@H]1/C=C\C=C(/C)C(=O)NC2=CC(=O)C(NCc3ccc(F)c(F)c3)=C(C[C@@H](C)C[C@H](OC)[C@H](O)[C@@H](C)/C=C(\C)[C@@H]1OC(N)=O)C2=O | > 10000 | 630 |  |  |  |  | 
8 | CO[C@H]1/C=C\C=C(/C)C(=O)NC2=CC(=O)C(NCc3cc(F)cc(F)c3)=C(C[C@@H](C)C[C@H](OC)[C@H](O)[C@@H](C)/C=C(\C)[C@@H]1OC(N)=O)C2=O | 1980 | 350 |  |  |  |  | 
9 | COc1ccccc1CNC1=C2C[C@@H](C)C[C@H](OC)[C@H](O)[C@@H](C)/C=C(\C)[C@H](OC(N)=O)[C@@H](OC)/C=C\C=C(/C)C(=O)NC(=CC1=O)C2=O | > 10000 | 460 |  |  |  |  | 
10 | COc1cccc(CNC2=C3C[C@@H](C)C[C@H](OC)[C@H](O)[C@@H](C)/C=C(\C)[C@H](OC(N)=O)[C@@H](OC)/C=C\C=C(/C)C(=O)NC(=CC2=O)C3=O)c1 | 2670 | 880 |  |  |  |  | 
11 | COc1ccc(CNC2=C3C[C@@H](C)C[C@H](OC)[C@H](O)[C@@H](C)/C=C(\C)[C@H](OC(N)=O)[C@@H](OC)/C=C\C=C(/C)C(=O)NC(=CC2=O)C3=O)cc1 | 7810 | 180 |  |  |  |  | 
12 | COc1ccc(CNC2=C3C[C@@H](C)C[C@H](OC)[C@H](O)[C@@H](C)/C=C(\C)[C@H](OC(N)=O)[C@@H](OC)/C=C\C=C(/C)C(=O)NC(=CC2=O)C3=O)c(OC)c1 | 3110 | 330 |  |  |  |  | 
13 | COc1ccc(CNC2=C3C[C@@H](C)C[C@H](OC)[C@H](O)[C@@H](C)/C=C(\C)[C@H](OC(N)=O)[C@@H](OC)/C=C\C=C(/C)C(=O)NC(=CC2=O)C3=O)cc1OC | > 10000 | 360 |  |  |  |  | 
14 | COc1cc(CNC2=C3C[C@@H](C)C[C@H](OC)[C@H](O)[C@@H](C)/C=C(\C)[C@H](OC(N)=O)[C@@H](OC)/C=C\C=C(/C)C(=O)NC(=CC2=O)C3=O)cc(OC)c1OC | 2450 | 640 |  |  |  |  | 
15 | COc1cc(CNC2=C3C[C@@H](C)C[C@H](OC)[C@H](O)[C@@H](C)/C=C(\C)[C@H](OC(N)=O)[C@@H](OC)/C=C\C=C(/C)C(=O)NC(=CC2=O)C3=O)ccc1O | 140 | 160 |  |  |  |  | 
16 | CO[C@H]1/C=C\C=C(/C)C(=O)NC2=CC(=O)C(NCc3ccc(O)cc3)=C(C[C@@H](C)C[C@H](OC)[C@H](O)[C@@H](C)/C=C(\C)[C@@H]1OC(N)=O)C2=O | 8480 | 170 |  |  |  |  | 
17 | CO[C@H]1/C=C\C=C(/C)C(=O)NC2=CC(=O)C(NCc3ccccc3C)=C(C[C@@H](C)C[C@H](OC)[C@H](O)[C@@H](C)/C=C(\C)[C@@H]1OC(N)=O)C2=O | 5700 | 1670 |  |  |  |  | 
18 | CO[C@H]1/C=C\C=C(/C)C(=O)NC2=CC(=O)C(NCc3cccc(C)c3)=C(C[C@@H](C)C[C@H](OC)[C@H](O)[C@@H](C)/C=C(\C)[C@@H]1OC(N)=O)C2=O | 5230 | 800 |  |  |  |  | 

Row | Structure (SMILES) | IC50 [1] [nM] | IC50 [2] [nM] | Activity [3] [U/L] | Activity [4] [U/L] | IC50 [5] [nM] | inhibition in vivo at 10 mg/kg [6] [%] | T/C [7] [%]
19 | CO[C@H]1/C=C\C=C(/C)C(=O)NC2=CC(=O)C(NCc3ccc(C)cc3)=C(C[C@@H](C)C[C@H](OC)[C@H](O)[C@@H](C)/C=C(\C)[C@@H]1OC(N)=O)C2=O | > 10000 | 490 |  |  |  |  | 
20 | CO[C@H]1/C=C\C=C(/C)C(=O)NC2=CC(=O)C(NCc3cccc(N)c3)=C(C[C@@H](C)C[C@H](OC)[C@H](O)[C@@H](C)/C=C(\C)[C@@H]1OC(N)=O)C2=O | 180 | 560 |  |  |  |  | 
21 | CO[C@H]1/C=C\C=C(/C)C(=O)NC2=CC(=O)C(NCc3ccc(N)cc3)=C(C[C@@H](C)C[C@H](OC)[C@H](O)[C@@H](C)/C=C(\C)[C@@H]1OC(N)=O)C2=O | 50 | 170 | 215.8 | 74.9 | 890 | 46 | 55
22 | CO[C@H]1/C=C\C=C(/C)C(=O)NC2=CC(=O)C(NCc3cccc(C#N)c3)=C(C[C@@H](C)C[C@H](OC)[C@H](O)[C@@H](C)/C=C(\C)[C@@H]1OC(N)=O)C2=O | 1800 | 450 |  |  |  |  | 
23 | CO[C@H]1/C=C\C=C(/C)C(=O)NC2=CC(=O)C(NCc3ccc(C#N)cc3)=C(C[C@@H](C)C[C@H](OC)[C@H](O)[C@@H](C)/C=C(\C)[C@@H]1OC(N)=O)C2=O | 480 | 250 |  |  |  |  | 
24 | CO[C@H]1/C=C\C=C(/C)C(=O)NC2=CC(=O)C(NCc3ccc(S(C)(=O)=O)cc3)=C(C[C@@H](C)C[C@H](OC)[C@H](O)[C@@H](C)/C=C(\C)[C@@H]1OC(N)=O)C2=O | 850 | 350 |  |  |  |  | 
25 | CO[C@H]1/C=C\C=C(/C)C(=O)NC2=CC(=O)C(NCc3ccc(S(N)(=O)=O)cc3)=C(C[C@@H](C)C[C@H](OC)[C@H](O)[C@@H](C)/C=C(\C)[C@@H]1OC(N)=O)C2=O | 960 | 1060 |  |  |  |  | 
26 | COC(=O)c1ccc(CNC2=C3C[C@@H](C)C[C@H](OC)[C@H](O)[C@@H](C)/C=C(\C)[C@H](OC(N)=O)[C@@H](OC)/C=C\C=C(/C)C(=O)NC(=CC2=O)C3=O)cc1 | 1030 | 130 |  |  |  |  | 
27 | CCOC(=O)c1ccc(CNC2=C3C[C@@H](C)C[C@H](OC)[C@H](O)[C@@H](C)/C=C(\C)[C@H](OC(N)=O)[C@@H](OC)/C=C\C=C(/C)C(=O)NC(=CC2=O)C3=O)cc1 | 1340 | 130 |  |  |  |  | 
28 | CO[C@H]1/C=C\C=C(/C)C(=O)NC2=CC(=O)C(NCc3ccc(OC(F)(F)F)cc3)=C(C[C@@H](C)C[C@H](OC)[C@H](O)[C@@H](C)/C=C(\C)[C@@H]1OC(N)=O)C2=O | 570 | 180 |  |  |  |  | 
29 | CO[C@H]1/C=C\C=C(/C)C(=O)NC2=CC(=O)C(NCc3cccc([N+](=O)[O-])c3)=C(C[C@@H](C)C[C@H](OC)[C@H](O)[C@@H](C)/C=C(\C)[C@@H]1OC(N)=O)C2=O | 340 | 690 |  |  |  |  | 
30 | CO[C@H]1/C=C\C=C(/C)C(=O)NC2=CC(=O)C(NCc3ccsc3)=C(C[C@@H](C)C[C@H](OC)[C@H](O)[C@@H](C)/C=C(\C)[C@@H]1OC(N)=O)C2=O | 680 | 400 |  |  |  |  | 
31 | CO[C@H]1/C=C\C=C(/C)C(=O)NC2=CC(=O)C(NCc3cncn3C)=C(C[C@@H](C)C[C@H](OC)[C@H](O)[C@@H](C)/C=C(\C)[C@@H]1OC(N)=O)C2=O | 440 | 410 |  |  |  |  | 
32 | CO[C@H]1/C=C\C=C(/C)C(=O)NC2=CC(=O)C(NCc3ccc(Cl)nc3)=C(C[C@@H](C)C[C@H](OC)[C@H](O)[C@@H](C)/C=C(\C)[C@@H]1OC(N)=O)C2=O | 510 | 80 | 173.6 | 79.4 | 1040 | 50 | 40
33 | CO[C@H]1/C=C\C=C(/C)C(=O)NC2=CC(=O)C(NCc3ccc(C(F)(F)F)nc3)=C(C[C@@H](C)C[C@H](OC)[C@H](O)[C@@H](C)/C=C(\C)[C@@H]1OC(N)=O)C2=O | 350 | 100 | 164.1 | 61 | 430 | 63 | 31
34 | COC1=C2C[C@@H](C)C[C@H](OC)[C@H](O)[C@@H](C)/C=C(\C)[C@H](OC(N)=O)[C@@H](OC)/C=C\C=C(/C)C(=O)NC(=CC1=O)C2=O [GELDANAMYCIN] |  |  | 317.2 | 273 |  |  | 
35 | C=CCNC1=C2C[C@@H](C)C[C@H](OC)[C@H](O)[C@@H](C)/C=C(\C)[C@H](OC(N)=O)[C@@H](OC)/C=C\C=C(/C)C(=O)NC(=CC1=O)C2=O [TANESPIMYCIN] | 160 |  | 237.4 | 66.6 |  | 57 | 35
